Test results as given in patent US20060264371A1, “Treatment” (Proximagen Ltd., priority 2005, published 2006).
“Also recorded” adds a separate entry of the source.

Assays:
Format in all cases: cell-based, rat
[1] = system: TH positive cells in primary ventral mesencephalic cell cultures; assay: MPP+ dose response on TH positive cell number in primary ventral mesencephalic cell cultures; conditions: 24 hrs exposure, 0.1-10 μM MPP+, n=3; read-out: EC50, TH positive (dopaminergic) cell death
Procedure: (§1) Primary ventral mesencephalic cell cultures: Primary cell cultures were prepared by dissecting out the ventral mesencephalon from E14 rat foetuses. The dissected tissue was pooled and incubated with 0.1% Trypsin solution. This solution was then removed and replaced with Dulbecco's modified Eagles medium (DMEM) containing 10% foetal bovine serum (FBS) and 0.25% penicillin-streptomycin-neomycin (PSN), and the tissue centrifuged for 1 minute at 2000 rpm at room temperature. The supernatant was then removed, fresh medium was added and the tissue mechanically dissociated using increasing fine bore fire-polished Pasteur pipettes. Cell density was assessed using a haematocytometer and cells were plated in culture medium containing 10% FBS and 0.25% PSN at a density of 1-1.5×10^5 on sterile coverslips coated with 0.01% poly-D-lysine. After 4 days the culture medium was removed and replaced with fresh serum free DMEM prior to treatment with MPP+ or OPN. […]
MPP+ dose response: MPP+ was dissolved in sterile PBS and the primary cell cultures were incubated for 24 hrs with one of the following concentrations of MPP+ : 0.1, 0.5, 1, 2, 5, 10 μM MPP+ or vehicle (PBS). […] An EC50 was calculated (3.076±0.56) and a high (10 μM) or low (2 μM) MPP+ concentration was used to investigate the role of OPN in dopaminergic cell survival. […]

[2] = system: TH positive cells in primary ventral mesencephalic cultures; assay: Survival of TH positive cells in primary ventral mesencephalic cultures with MPP+ treatment; conditions: for concentration of maximal efficacy in increasing TH positive cell survival: lowest concentration used; for effect on survival/death of TH positive cells: 24 hrs pretreatment
Procedure: Primary ventral mesencephalic cell cultures: Primary cell cultures were prepared by dissecting out the ventral mesencephalon from E14 rat foetuses. The dissected tissue was pooled and incubated with 0.1% Trypsin solution. This solution was then removed and replaced with Dulbecco's modified Eagles medium (DMEM) containing 10% foetal bovine serum (FBS) and 0.25% penicillin-streptomycin-neomycin (PSN), and the tissue centrifuged for 1 minute at 2000 rpm at room temperature. The supernatant was then removed, fresh medium was added and the tissue mechanically dissociated using increasing fine bore fire-polished Pasteur pipettes. Cell density was assessed using a haematocytometer and cells were plated in culture medium containing 10% FBS and 0.25% PSN at a density of 1-1.5×10^5 on sterile coverslips coated with 0.01% poly-D-lysine. After 4 days the culture medium was removed and replaced with fresh serum free DMEM prior to treatment with MPP+ or OPN. Each treatment was done in triplicate per experiment and each series of experiments was repeated a further 2 times to give a final n=3.
Manipulation of the OPN system: Cultures were incubated with one of the following treatments for 24 hrs prior to MPP+ administration (either 10 μM or 2 μM MPP+): OPN protein (1, 5, 10, 25, 50 & 100 ng/ml), anti-OPN antibody (26.5, 53, 265, 530 ng/ml and 1.325, 2.65 μg/ml), anti-αv or anti-β3 integrin receptor subunit antibody (0.02, 0.04, 0.2, 0.4, 1 & 2 μg/ml). Control groups received no MPP+ treatment.
(§2) Tyrosine hydroxylase (TH) immunohistochemistry: The culture medium was removed from the cells and the coverslips were fixed in 4% paraformaldehyde prior to peroxidase detection of TH using the ABC immunohistochemical method. Coverslips were mounted and examined using a Zeiss Axiophot microscope at a 50× magnification and the number of TH positive cells on each coverslip was manually counted in four fields chosen at random (total area: 8 mm^2).

[3] = system: TH positive cells in primary ventral mesencephalic cultures; assay: Survival of TH positive cells in primary ventral mesencephalic cultures without MPP+ treatment; conditions: 24 hrs incubation, no toxin; listed as OPN
Procedure: as §1, §2

Compound	EC50 [1] [µM]	concentration of maximal efficacy in increasing TH positive cell survival ([2]; 2 μM MPP+) [ng/mL]	concentration of maximal efficacy in increasing TH positive cell survival ([2]; 10 μM MPP+) [ng/mL]	effect on survival/death of TH positive cells ([2]; then 2 μM MPP+ for 24 hrs)	effect on survival/death of TH positive cells ([2]; then 2 μM MPP+ for 24 hrs, listed as OPN)	effect on survival/death of TH positive cells ([2]; then 10 μM MPP+ for 24 hrs)	effect on survival/death of TH positive cells ([2]; then 10 μM MPP+ for 24 hrs, listed as OPN)	effect on viability of TH positive cells [3]
C[n+]1ccc(-c2ccccc2)cc1 [MPP+]	3.08 ± 0.56	–	–	–	–	–	–	–
OPN protein fragment: 15 amino acid fragment of rat osteopontin (SEQ ID NO: 8) containing the RGD αvβ3 integrin binding site (TVDVPDGRGDSLAYG; listed as Rattus norvegicus)	–	1	1	almost completely protected dopaminergic cells	increased TH cell survival	almost completely protected dopaminergic cells	increased survival of TH positive cells	not found to affect the viability; also recorded: no effect
